Measurements published in ChEMBL document CHEMBL3108730, “Exploring the determinants of trace amine-associated receptor 1's functional selectivity for the stereoisomers of amphetamine and methamphetamine” (J Med Chem, 2014).
Activity calls are given as the source filed them. No cut-off for these calls is given here.

How the values were obtained:
[1] = system: Trace amine-associated receptor 1 (Mus musculus), Q923Y8 [Y287N]; assay: Activation of mouse TAAR1 transmembrane domain 7 Tyr287(7.39)Asn mutant expressed in HEK293 cells assessed as stimulation of cAMP production at 0.0001 to 100 uM after 1 hr by chemiluminescent assay relative to beta-phenylethylamine; assay type: functional, cell-based
Sequence of Trace amine-associated receptor 1 (Mus musculus), Q923Y8 [Y287N] (Q923Y8 whole entry Y287N, the tested form may be a part): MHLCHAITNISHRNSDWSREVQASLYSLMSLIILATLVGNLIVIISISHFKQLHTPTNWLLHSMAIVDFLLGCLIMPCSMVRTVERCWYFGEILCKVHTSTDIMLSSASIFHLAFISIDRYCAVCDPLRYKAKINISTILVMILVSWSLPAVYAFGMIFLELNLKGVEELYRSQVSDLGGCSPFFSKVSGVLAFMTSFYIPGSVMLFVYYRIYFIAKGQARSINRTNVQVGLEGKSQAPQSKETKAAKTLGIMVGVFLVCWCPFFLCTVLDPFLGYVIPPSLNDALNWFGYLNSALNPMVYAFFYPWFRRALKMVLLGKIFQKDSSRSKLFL

[2] = system: Trace amine-associated receptor 1 (Rattus norvegicus), Q923Y9 [N287Y]; assay: Activation of rat TAAR1 transmembrane domain 7 Asn287(7.39)Tyr mutant expressed in HEK293 cells assessed as stimulation of cAMP production at 0.0001 to 100 uM after 1 hr by chemiluminescent assay relative to beta-phenylethylamine; assay type: functional, cell-based
Sequence of Trace amine-associated receptor 1 (Rattus norvegicus), Q923Y9 [N287Y] (Q923Y9 whole entry N287Y, the tested form may be a part): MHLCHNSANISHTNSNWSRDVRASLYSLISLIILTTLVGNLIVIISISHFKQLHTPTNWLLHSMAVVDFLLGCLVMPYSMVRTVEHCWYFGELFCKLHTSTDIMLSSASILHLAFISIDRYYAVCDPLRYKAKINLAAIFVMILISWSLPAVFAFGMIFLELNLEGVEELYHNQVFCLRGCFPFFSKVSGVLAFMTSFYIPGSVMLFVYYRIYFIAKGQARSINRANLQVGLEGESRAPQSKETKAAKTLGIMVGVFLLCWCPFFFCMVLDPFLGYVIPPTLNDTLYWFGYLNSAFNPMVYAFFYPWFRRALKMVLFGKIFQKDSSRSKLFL

[3] = system: Trace amine-associated receptor 1 (Mus musculus), Q923Y8 [T268M]; assay: Activation of mouse TAAR1 transmembrane domain 6 Thr268(6.55)Met mutant expressed in HEK293 cells assessed as stimulation of cAMP production at 0.0001 to 100 uM after 1 hr by chemiluminescent assay relative to beta-phenylethylamine; assay type: functional, cell-based
Sequence of Trace amine-associated receptor 1 (Mus musculus), Q923Y8 [T268M] (Q923Y8 whole entry T268M, the tested form may be a part): as the sequence (Q923Y8 whole entry Y287N, the tested form may be a part) above, with T268M, N287Y counted along it

[4] = system: Trace amine-associated receptor 1 (Rattus norvegicus), Q923Y9 [M268T]; assay: Activation of rat TAAR1 transmembrane domain 6 Met268(6.55)Thr mutant expressed in HEK293 cells assessed as stimulation of cAMP production at 0.0001 to 100 uM after 1 hr by chemiluminescent assay relative to beta-phenylethylamine; assay type: functional, cell-based
Sequence of Trace amine-associated receptor 1 (Rattus norvegicus), Q923Y9 [M268T] (Q923Y9 whole entry M268T, the tested form may be a part): as the sequence (Q923Y9 whole entry N287Y, the tested form may be a part) above, with M268T, Y287N counted along it

[5] = target: Trace amine-associated receptor 1 (Mus musculus) (UniProt Q923Y8); assay: Activation of mouse wild type TAAR1 expressed in HEK293 cells assessed as stimulation of cAMP production at 0.0001 to 100 uM after 1 hr by chemiluminescent assay relative to beta-phenylethylamine; assay type: functional, cell-based
Sequence of Trace amine-associated receptor 1 (Mus musculus) (Q923Y8 whole entry): as the sequence (Q923Y8 whole entry Y287N, the tested form may be a part) above, with N287Y counted along it

[6] = target: Trace amine-associated receptor 1 (Rattus norvegicus) (UniProt Q923Y9); assay: Activation of rat wild type TAAR1 expressed in HEK293 cells assessed as stimulation of cAMP production at 0.0001 to 100 uM after 1 hr by chemiluminescent assay relative to beta-phenylethylamine; assay type: functional, cell-based
Sequence of Trace amine-associated receptor 1 (Rattus norvegicus) (Q923Y9 whole entry, the tested form may be a part): as the sequence (Q923Y9 whole entry N287Y, the tested form may be a part) above, with Y287N counted along it

[7] = target: Trace amine-associated receptor 1 (Mus musculus, UniProt Q923Y8, Y287N); assay: Activation of mouse TAAR1 transmembrane domain 7 Tyr287(7.39)Asn mutant expressed in HEK293 cells assessed as stimulation of cAMP production after 1 hr by chemiluminescent assay; assay type: functional, cell-based
Sequence of Trace amine-associated receptor 1 (Mus musculus, UniProt Q923Y8, Y287N) (Q923Y8 whole entry Y287N, the tested form may be a part): as the sequence (Q923Y8 whole entry Y287N, the tested form may be a part) above

[8] = target: Trace amine-associated receptor 1 (Rattus norvegicus, UniProt Q923Y9, N287Y); assay: Activation of rat TAAR1 transmembrane domain 7 Asn287(7.39)Tyr mutant expressed in HEK293 cells assessed as stimulation of cAMP production after 1 hr by chemiluminescent assay; assay type: functional, cell-based
Sequence of Trace amine-associated receptor 1 (Rattus norvegicus, UniProt Q923Y9, N287Y) (Q923Y9 whole entry N287Y, the tested form may be a part): as the sequence (Q923Y9 whole entry N287Y, the tested form may be a part) above

[9] = target: Trace amine-associated receptor 1 (Mus musculus, UniProt Q923Y8, T268M); assay: Activation of mouse TAAR1 transmembrane domain 6 Thr268(6.55)Met mutant expressed in HEK293 cells assessed as stimulation of cAMP production after 1 hr by chemiluminescent assay; assay type: functional, cell-based
Sequence of Trace amine-associated receptor 1 (Mus musculus, UniProt Q923Y8, T268M) (Q923Y8 whole entry T268M, the tested form may be a part): as the sequence (Q923Y8 whole entry Y287N, the tested form may be a part) above, with T268M, N287Y counted along it

[10] = target: Trace amine-associated receptor 1 (Rattus norvegicus, UniProt Q923Y9, M268T); assay: Activation of rat TAAR1 transmembrane domain 6 Met268(6.55)Thr mutant expressed in HEK293 cells assessed as stimulation of cAMP production after 1 hr by chemiluminescent assay; assay type: functional, cell-based
Sequence of Trace amine-associated receptor 1 (Rattus norvegicus, UniProt Q923Y9, M268T) (Q923Y9 whole entry M268T, the tested form may be a part): as the sequence (Q923Y9 whole entry N287Y, the tested form may be a part) above, with M268T, Y287N counted along it

[11] = target: Trace amine-associated receptor 1 (Mus musculus, UniProt Q923Y8); assay: Activation of mouse wild type TAAR1 expressed in HEK293 cells assessed as stimulation of cAMP production after 1 hr by chemiluminescent assay; assay type: functional, cell-based
Sequence of Trace amine-associated receptor 1 (Mus musculus, UniProt Q923Y8) (Q923Y8 whole entry): as the sequence (Q923Y8 whole entry Y287N, the tested form may be a part) above, with N287Y counted along it

[12] = target: Trace amine-associated receptor 1 (Rattus norvegicus, UniProt Q923Y9); assay: Activation of rat wild type TAAR1 expressed in HEK293 cells assessed as stimulation of cAMP production after 1 hr by chemiluminescent assay; assay type: functional, cell-based
Sequence of Trace amine-associated receptor 1 (Rattus norvegicus, UniProt Q923Y9) (Q923Y9 whole entry): as the sequence (Q923Y9 whole entry N287Y, the tested form may be a part) above, with Y287N counted along it

[13] = system: Trace amine-associated receptor 1 (Mus musculus), Q923Y8 [D102A]; assay: Activation of mouse TAAR1 Asp102(3.32)Ala mutant expressed in HEK293 cells assessed as stimulation of cAMP production at 0.0001 to 100 uM after 1 hr by chemiluminescent assay; assay type: functional, cell-based
Sequence of Trace amine-associated receptor 1 (Mus musculus), Q923Y8 [D102A] (Q923Y8 whole entry D102A, the tested form may be a part): as the sequence (Q923Y8 whole entry Y287N, the tested form may be a part) above, with D102A, N287Y counted along it

[14] = organism: Rattus norvegicus; assay: Selectivity ratio of EC50 for rat TAAR1 transmembrane domain 6 Met268(6.55)Thr mutant to EC50 for rat wild type TAAR1
[15] = organism: Mus musculus; assay: Selectivity ratio of EC50 for mouse wild type TAAR1 to EC50 for mouse TAAR1 transmembrane domain 6 Thr268(6.55)Met mutant
[16] = system: Trace amine-associated receptor 1 (Rattus norvegicus), Q923Y9 [D102A]; assay: Activation of rat TAAR1 Asp102(3.32)Ala mutant expressed in HEK293 cells assessed as stimulation of cAMP production at 0.0001 to 100 uM after 1 hr by chemiluminescent assay relative to control; assay type: functional, cell-based
Sequence of Trace amine-associated receptor 1 (Rattus norvegicus), Q923Y9 [D102A] (Q923Y9 whole entry D102A, the tested form may be a part): as the sequence (Q923Y9 whole entry N287Y, the tested form may be a part) above, with D102A, Y287N counted along it

[17] = system: Trace amine-associated receptor 1 (Mus musculus), Q923Y8 [Y287N]; assay: Activation of mouse TAAR1 transmembrane domain 7 Tyr287(7.39)Asn mutant expressed in HEK293 cells assessed as stimulation of cAMP production at 0.0001 to 100 uM after 1 hr by chemiluminescent assay relative to control; assay type: functional, cell-based
[18] = system: Trace amine-associated receptor 1 (Rattus norvegicus), Q923Y9 [N287Y]; assay: Activation of rat TAAR1 transmembrane domain 7 Asn287(7.39)Tyr mutant expressed in HEK293 cells assessed as stimulation of cAMP production at 0.0001 to 100 uM after 1 hr by chemiluminescent assay relative to control; assay type: functional, cell-based
[19] = system: Trace amine-associated receptor 1 (Mus musculus), Q923Y8 [T268M]; assay: Activation of mouse TAAR1 transmembrane domain 6 Thr268(6.55)Met mutant expressed in HEK293 cells assessed as stimulation of cAMP production at 0.0001 to 100 uM after 1 hr by chemiluminescent assay relative to control; assay type: functional, cell-based
[20] = system: Trace amine-associated receptor 1 (Rattus norvegicus), Q923Y9 [M268T]; assay: Activation of rat TAAR1 transmembrane domain 6 Met268(6.55)Thr mutant expressed in HEK293 cells assessed as stimulation of cAMP production at 0.0001 to 100 uM after 1 hr by chemiluminescent assay relative to control; assay type: functional, cell-based
[21] = target: Trace amine-associated receptor 1 (Mus musculus) (UniProt Q923Y8); assay: Activation of mouse wild type TAAR1 expressed in HEK293 cells assessed as stimulation of cAMP production at 0.0001 to 100 uM after 1 hr by chemiluminescent assay relative to control; assay type: functional, cell-based
[22] = target: Trace amine-associated receptor 1 (Rattus norvegicus) (UniProt Q923Y9); assay: Activation of rat wild type TAAR1 expressed in HEK293 cells assessed as stimulation of cAMP production at 0.0001 to 100 uM after 1 hr by chemiluminescent assay relative to control; assay type: functional, cell-based

Row | SMILES | Emax [1] [%] | Emax [2] [%] | Emax [3] [%] | Emax [4] [%] | Emax [5] [%] | Emax [6] [%] | EC50 [7] [µM] | EC50 [8] [µM] | EC50 [9] [µM] | EC50 [10] [µM] | EC50 [11] [µM] | EC50 [12] [µM] | Activity [13] | Ratio EC50 [14] | Ratio EC50 [15] | other results
1 | CN[C@@H](C)Cc1ccccc1 [METHAMPHETAMINE] | 92.2 | 101 | 94 | 94.3 | 98 | 94.3 | 1.82 | 0.202 | 0.0178 | 2.04 | 0.279 | 0.133 | inactive | 10 | 10 | 
2 | NCCc1ccc(O)cc1 |  |  |  |  |  |  |  |  |  |  |  |  | inactive |  |  | Activity [16]: inactive
3 | CN[C@H](C)Cc1ccccc1 | 89.6 | 93.3 | 91.5 | 77.6 | 96.9 | 82.5 | 1.6 | 0.33 | 0.126 | 1.11 | 0.843 |  | inactive | 10 | 10 | 
4 | C[C@@H](N)Cc1ccccc1 [LEVAMFETAMINE] | 89.4 | 95.8 | 90.5 | 91.6 | 93.6 | 86.7 | 0.105 |  | 0.121 |  |  |  | inactive |  |  | 
5 | C[C@H](N)Cc1ccccc1 [DEXTROAMPHETAMINE] | 93 | 103 | 98 | 93.8 | 99.8 | 102 | 0.219 |  | 0.00398 |  | 0.0846 |  | inactive |  |  | 
6 | NCCc1ccccc1 [PHENETHYLAMINE] |  |  |  |  |  |  | 0.0586 | 0.171 | 0.0473 | 0.261 | 0.189 | 0.0403 | inactive |  |  | Emax [17]: 95.9%; Emax [18]: 97.2%; Emax [19]: 97.6%; Emax [20]: 97.8%; Emax [21]: 95%; Emax [22]: 96.4%
